Where two headings read alike, the source gives them in different places. Where no end group is shown, it is not given here.
Key:
[1] = tested on: S. aureus (methicillin resistant) ATCC 33591
Red blood cell toxicity = type: cell-based; conditions: red blood cells (RBC)
Red blood cells (RBC) = experiment: Red blood cell toxicity; type: cell-based
Cr. Neoformans 32045 = type: cell-based
Summary of the method: (§1)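 Broth microdilution per NCCLS, adapted for fungi with Sabouraud Dextrose Broth; KFAK-repeat peptide multimers in two-fold dilutions from 1,000 to 1 μg/ml. Growth by OD620 after overnight incubation; IC50 by sigmoidal fit, in duplicate, repeated at least twice.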

C. albicans 10231 = type: cell-based
Summary of the method: as §1

P. aeruginosa ATCC 15442 = experiment: HMARQ biocidal kill activity; type: cell-based; conditions: P. aeruginosa ATCC 15442 (gram−)
Summary of the method: (§2)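 Inoculated sample matrix (200–300 μL) added to biocide in 96-well blocks alongside untreated controls; for kill-time runs organisms added after biocide. Viable counts by MPN serial 1:10 dilution in TSB with 50 μM resazurin indicator; values are ppm (μg/mL) giving 3.5 log kill versus untreated at 15 min or 24 h.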

Staph. aureus ATCC 6538 = experiment: HMARQ biocidal kill activity; type: cell-based; conditions: Staph. aureus ATCC 6538 (gram+)
Summary of the method: as §2

HeLa cell line = experiment: HeLa MTS cellular reduction toxicity assay; type: cell-based; conditions: for TX50: 24 h, MTS
Procedure: The RBC protocol was from Blondelle (2000) and is described generally as follows: The toxicity toward the HeLa cell line was determined using a MTS (3-(4-5-dimethylthiazol-2-yl)-5-(3carboxymethoxyphenyl)-2-(4-sulfophenyl)-2H-tetrazolium, sodium salt) cellular reduction assay. MTS (2 mg/mL) was prepared in Dulbecco PBS (pH 7.35), filtered, aliquoted and stored at minus 20° C. In 96 well flat bottomed plates, cell suspensions (250 μL of 6×10^4 cell/mL in each well) were incubated for 48 h at 37° C. (5% CO2 incubator). The peptides (50 μL) were then added to the cell monolayer (following aspiration of the media from each well and addition of 50 μL of Dulbecco's Modified Eagles Medium) at varying concentrations derived from serial 2-fold dilutions, and the plates incubated for 24 h at 37° C. (5% CO2 incubator). Proliferation was then determined by adding a solution of phenazine methosulfate (PMS: 0.92 mg/mL in DPBS) to MTS at a 1:20 ration just prior to the assay. Twenty microliters MTS-PMS solution were added to each well and the plates incubated for 1 h at 37° C. (5% CO2 incubator). The relative percent toxicity was determined by comparing the absorbance at 490 nm of each peptide to the absorbance of cells without peptide. The TX50 (concentration required for 50% toxicity) was calculated using a sigmoidal curve fitting software (Graphpad Prism).

[2] = RBCs, concentration required for 50% toxicity, read-out: TX50
[3] = Table 3, P aeruginosa 10145, gram−
[4] = S. aureus (methicillin resistant) 33591, gram+

Substance	IC50 (P. aeruginosa ATCC 10145; ATCC 10145) [µg/mL]	MIC (P. aeruginosa ATCC 10145; ATCC 10145) [µg/mL]	IC50 (E. coli ATCC 2592; ATCC 2592) [µg/mL]	MIC (E. coli ATCC 2592; ATCC 2592) [µg/mL]	IC50 ([1]; ATCC 33591) [µg/mL]	MIC ([1]; ATCC 33591) [µg/mL]	% kill at 250 μg/ml (Red blood cells (RBC)) [%]	IC50 (Cr. Neoformans 32045) [µg/mL]	MIC (Cr. Neoformans 32045) [µg/mL]	IC50 (C. albicans 10231; 10231) [µg/mL]	MIC (C. albicans 10231; 10231) [µg/mL]	ppm needed for 3.5 log kill at 15 min (P. aeruginosa ATCC 15442) [ppm]	ppm needed for 3.5 log kill at 24 hr (P. aeruginosa ATCC 15442) [ppm]	ppm needed for 3.5 log kill at 15 min (Staph. aureus ATCC 6538)	ppm needed for 3.5 log kill at 24 hr (Staph. aureus ATCC 6538) [ppm]	% kill at 500 μg/ml (HeLa cell line) [%]	TX50 (HeLa cell line) [µg/mL]	HC50 at 24 h (Red blood cell toxicity; [2]) [µg/mL]	other results
H-KKFAKKFAKKFAKKFAKKFAKKFA-OH [KKFA (6), KKFA KKFA KKFA KKFA KKFA KKFA]	33	62	7	16 to 32	136	>250	2	12	32 to 62	107	125 to 250	>500	8	>500 ppm	63	76.4	>500		HC50 at 24 h (Red blood cell toxicity): > 500 µg/mL
H-LKKLLKKLLKKLLKKLLKKL-OH [LKKL (5), LKKL LKKL LKKL LKKL LKKL]	27	62	49	62 to 125	69	>250	100	55	62 to 125	211	>500	>500	8	>500 ppm	125	−0.7	31	9	
H-LKKLLKKLLKKLLKKLLKKLLKKLLKKL-OH [LKKL (7), LKKL LKKL LKKL LKKL LKKL LKKL LKKL]	96	125	41	62 to 125	252	>250	100	85	100 to 125	199	250 to 500	125	8	4 ppm	125	−0.4	25	9	
H-LKLKLKLKLKLKLKLK-OH [LK (8), LK LK LK LK LK LK LK LK]	125	130	65	>125	56	125 to 250	13	9.7	32 to 63	162	250 to 500	8	16	31 ppm	4	43.5	122	> 500	
H-LKLKLKLKLKLKLKLKLKLKLK-OH [LK (11), LK LK LK LK LK LK LK LK LK LK LK]	51	62	50	>125	111	>250	24	26	32 to 62	185	250 to 500	16	8	16 or less ppm	4	43.8	202	> 500	
H-RFARRFARRFARRFARRFARRFAR-OH [RFAR (6), RFAR RFAR RFAR RFAR RFAR RFAR]	25	32	12	31 to 62	15	31 to 62	72	35	62 to 125	114	125 to 250	31	31	>500 ppm	8	22.1	159	176	
KAAKKAAKKAAKKAAKKAAKKAAKKAAK [KAAK (7), KAAK KAAK KAAK KAAK KAAK KAAK KAAK]	>250	>250	261		>500	>500	−6	41	62 to 125	262	>500	>500	125	>500 ppm	250	90.0	>500	> 500	
KFAFKFAFKFAFKFAFKFAFKFAFKFAF [KFAF (7), KFAF KFAF KFAF KFAF KFAF KFAF KFAF]	250	>250	>1000	>1000	>500	>500	4	67	125 to 250	>500	>500	63	63	>500 ppm	125	76.8	>500	> 500	
KFFKKFFKKFFKKFFKKFFKKFFKKFFK [KFFK (7), KFFK KFFK KFFK KFFK KFFK KFFK KFFK]												16	8	4 ppm	63	−0.5	30	12	IC50 (P. aeruginosa ATCC 10145; [3]): 87 µg/mL; MIC (P. aeruginosa ATCC 10145; [3]): 125 µg/mL; IC50 (E. coli ATCC 2592; E. coli 2592, gram−): 63 µg/mL; MIC (E. coli ATCC 2592; E. coli 2592, gram−): >125 µg/mL; IC50 [1, 4]: 133 µg/mL; MIC [1, 4]: >250 µg/mL; % kill at 250 μg/ml (Red blood cells (RBC); RBCs, 250 μg/ml): 100%; IC50 (Cr. Neoformans 32045; fungus Cr. Neoformans 32045): 55 µg/mL; MIC (Cr. Neoformans 32045; fungus Cr. Neoformans 32045): 62 to 125 µg/mL; IC50 (C. albicans 10231; yeast C. albicans 10231): 183 µg/mL; MIC (C. albicans 10231; yeast C. albicans 10231): 250 to 500 µg/mL
KFKKFKKFKKFKKFKKFK [KFK (6), KFK KFK KFK KFK KFK KFK]	74	125	39	62 to 125	322	>500	−7	33	40 to 62	164	250 to 500	>500	125	>500 ppm		77.8	>500	> 500	
KFKKFKKFKKFKKFKKFKKFK [KFK (7), KFK KFK KFK KFK KFK KFK KFK]	87	125	18	31 to 62	141	>500	−7	26	40 to 62	175	250 to 500	>500	125	>500 ppm		80.9	>500	> 500	

Reference: US7091185B2, “Periodic antimicrobial peptides” (Dow Global Technologies Inc., priority 2003, dated 2006)
